Each block holds one compound with its values, some of them ahead of it. Calls of active or inactive are those of the source. The rule behind the calls is not given here.
How the values were obtained:
Trypanosoma cruzi = assay: AntiTrypanosoma cruzi activity IC50 (uM); format: functional, organism-based
Trypanosoma brucei [1] = assay: AntiTrypanosoma brucei activity T. b. brucei IC50 (uM); format: functional, organism-based
Trypanosoma brucei [2] = assay: AntiTrypanosoma brucei activity T. b. rhodesiense IC50 (uM); format: functional, organism-based
Leishmania major = assay: AntiLeishmania activity L. major IC50 (uM); format: functional, organism-based
Leishmania infantum = assay: AntiLeishmania activity L. infantum (macrophages) IC50 (uM); format: functional, organism-based
HepG2 = assay: Cytotoxicity data HepG2 CC20 (uM); format: functional
MRC5 = assay: MRC5 CC50 (uM) Cytotoxicity; format: functional; settings: Homo sapiens
[3] = PMM CC50 (uM) Cytotoxicity; format: functional; settings: Macrophage
Schistosoma mansoni [4] = assay: AntiSchistosoma mansoni activity Larva IC50 (uM); format: functional, organism-based
Schistosoma mansoni [5] = assay: AntiSchistosoma mansoni activity Juveniles IC50 (uM); format: functional, organism-based
Schistosoma mansoni [6] = assay: AntiSchistosoma mansoni activity Adults IC50 (uM); format: functional, organism-based
Schistosoma mansoni [7] = assay: AntiSchistosoma mansoni activity Newly Transformed Schistosomula: inhibition at 10 uM at 72h (%); format: functional
Schistosoma mansoni [8] = assay: AntiSchistosoma mansoni activity Newly Transformed Schistosomula: IC50 at 72h (uM); format: functional, organism-based
Cryptosporidium parvum [9] = assay: AntiCryptosporidium parvum activity Compounds added 3h after t0, IC 50 (uM); format: functional, organism-based
Cryptosporidium parvum [10] = assay: AntiCryptosporidium parvum activity Compounds added at t0, IC 50 (uM); format: functional, organism-based
[11] = HL60 CC50 (uM) Cytotoxicity; format: functional; settings: HL-60
Schistosoma mansoni [12] = assay: AntiSchistosoma mansoni activity Adults: Effect at 10 uM after 48h; format: functional, organism-based
Brugia pahangi = assay: AntiBrugia pahangi activity Average inhibition motility at 10 uM (%); format: functional
Onchocerca gutturosa [13] = assay: AntiOnchocerca activity O. gutturosa adult males: Motility reduction at 12.5 uM (%); format: functional; design: scale not given: the % may be the effect or the level left
Onchocerca gutturosa [14] = assay: AntiOnchocerca activity O. gutturosa adult males: MTT reduction at 12.5 uM (%); format: functional; design: scale not given: the % may be the effect or the level left
Onchocerca lienalis = assay: AntiOnchocerca activity O. lienalis microfilariae Motility reduction (%); format: functional; design: concentration or dose not given beside the values
Onchocerca ochengi [15] = assay: AntiOnchocerca activity O. ochengi adult females: final mean inhibition motility at 10 uM on Day 7 (%); format: functional
Onchocerca ochengi [16] = assay: AntiOnchocerca activity O. ochengi adult males: final mean inhibition motility at 10 uM on Day 5 (%); format: functional
Onchocerca volvulus = assay: AntiOnchocerca activity O. volvulus L3 Molting assay: inhibition at 10 uM (%); format: functional
Toxoplasma gondii [17] = assay: AntiToxoplasma gondii activity data Inhibition of plaque forming efficiency (%) Experiment A; format: functional; design: concentration or dose not given beside the values
Toxoplasma gondii [18] = assay: AntiToxoplasma gondii activity data 2-day killing assay: inhibition at 10 uM (%) Experiment C; format: functional; settings: 48 h
Toxoplasma gondii [19] = assay: AntiToxoplasma gondii activity data 2-day killing assay: inhibition at 10 uM (%) Experiment D; format: functional
Toxoplasma gondii [20] = assay: AntiToxoplasma gondii activity data 2-day killing assay: inhibition at 10 uM (%) Experiment E; format: functional
Toxoplasma gondii [21] = assay: AntiToxoplasma gondii activity data 2-day killing assay: IC50 (uM), Experiment F; format: functional, organism-based; settings: Toxoplasma gondii, 48 h; read-out: IC50
Toxoplasma gondii [22] = assay: AntiToxoplasma gondii activity data 2-day killing assay: IC50 (uM), Experiment G; format: functional, organism-based

Compound: CN1CCN(S(=O)(=O)c2ccc(-c3ccc4c(Nc5ncc(Cl)cn5)ccnc4c3)cc2)CC1
IC50 (Trypanosoma cruzi): 3.81 µM
IC50 (Trypanosoma brucei [1]): 3.78 µM
IC50 (Trypanosoma brucei [2]): 0.96 µM
IC50 (Leishmania major): 8.51 µM
IC50 (Leishmania infantum): 2.54 µM
CC20 (HepG2): 8 µM
CC50 (MRC5): > 32 µM
CC50 [3]: 4 µM

Compound: c1ccc(-c2[nH]c3ccccc3c2C(c2ccccn2)N2CCCC2)cc1 (configuration not stated)
IC50 (Schistosoma mansoni [4]): 0.5 µM
IC50 (Schistosoma mansoni [5]): 2.5 µM
IC50 (Schistosoma mansoni [6]): 3.2 µM
Inhibition (Schistosoma mansoni [7]): 100%
IC50 (Schistosoma mansoni [8]): 0.51 µM
CC20 (HepG2): 1 µM
CC50 (MRC5): 86 µM

Compound: c1ccc(Oc2ccc(-c3cncc(-c4ccc5[nH]ccc5c4)n3)cc2)cc1
IC50 (Schistosoma mansoni [4]): 1.4 µM
IC50 (Schistosoma mansoni [5]): 2.1 µM
IC50 (Schistosoma mansoni [6]): 3.7 µM
Inhibition (Schistosoma mansoni [7]): 100%
IC50 (Schistosoma mansoni [8]): 0.27 µM
Activity (Schistosoma mansoni [12]): Active
CC20 (HepG2): 25.7 µM
CC50 (MRC5): 20 µM

Compound: COC(=O)c1c(NC(=O)c2cc3ccccc3oc2=O)sc2c1CCN(Cc1ccccc1)C2
Inhibition (Brugia pahangi): 10%
Activity (Onchocerca gutturosa [13]): 21.4%
Activity (Onchocerca gutturosa [14]): 0%
Activity (Onchocerca lienalis): 33.3%
Inhibition (Onchocerca ochengi [15]): 8%
Inhibition (Onchocerca ochengi [16]): 0%
Inhibition (Onchocerca volvulus): 100%
CC20 (HepG2): 12.3 µM
CC50 [11]: > 50 µM

Compound: COCC(C)NC(=O)CSc1ncnc2sc(-c3ccccc3)cc12 (configuration not stated)
Inhibition (Schistosoma mansoni [7]): 50%
Activity (Schistosoma mansoni [12]): inactive
CC20 (HepG2): >80 µM

Compound: O=C(c1ccc(F)cc1)N(CCNc1ccccc1)c1ccccc1
Inhibition (Brugia pahangi): 17%
Activity (Onchocerca gutturosa [13]): 28.6%
Activity (Onchocerca gutturosa [14]): 0%
Activity (Onchocerca lienalis): 13.3%
Inhibition (Onchocerca ochengi [15]): 0%
Inhibition (Onchocerca ochengi [16]): 0%
Inhibition (Onchocerca volvulus): 89%
CC20 (HepG2): 18.5 µM
CC50 [11]: > 50 µM

Compound: Cc1cc(NC(=O)c2ccc(Oc3ccc(Cl)cc3O)o2)no1
Inhibition (Toxoplasma gondii [17]): ~85%
inhibition at 10 µM (Toxoplasma gondii [18]): 70%
Inhibition (Toxoplasma gondii [19]): 64.8%
Inhibition (Toxoplasma gondii [20]): 22%
IC50 (Toxoplasma gondii [21]): 7.32 µM
IC50 (Toxoplasma gondii [22]): no inhibition
CC50 [11]: > 50 µM

Compound: CNc1nnc(Sc2cnn(-c3ccccc3)c(=O)c2Cl)s1
IC50 (Schistosoma mansoni [5]): 3.7 µM
Inhibition (Schistosoma mansoni [7]): 100%
IC50 (Schistosoma mansoni [8]): 0.15 µM
CC20 (HepG2): 1.55 µM

Compound: CCOc1ccc2cc(-c3nn(C(C)(C)C)c(N)c3C(N)=O)cnc2c1
IC50 (Cryptosporidium parvum [10]): 0.05 µM

Compound: COc1ccc(-c2onc(C(F)(F)F)c2-c2ccc(Cl)cc2)c(O)c1
IC50 (Schistosoma mansoni [4]): 3.36 µM
IC50 (Schistosoma mansoni [5]): 7.02 µM
IC50 (Schistosoma mansoni [6]): 5.3 µM
Inhibition (Schistosoma mansoni [7]): 20%
CC50 (MRC5): 8.3 µM

Compound: Nc1nc(N)c2c3c(sc2n1)CN(Cc1ccccc1)CC3
Inhibition (Toxoplasma gondii [17]): 100%
inhibition at 10 µM (Toxoplasma gondii [18]): 54.2%
Inhibition (Toxoplasma gondii [19]): 83.2%
Inhibition (Toxoplasma gondii [20]): 81.6%
IC50 (Toxoplasma gondii [21]): 7.06 µM
IC50 (Toxoplasma gondii [22]): no inhibition
CC50 [11]: > 50 µM

Compound: Nc1ncc(-c2ccc(C(F)(F)F)nc2)cc1-c1ccc(C(F)(F)F)nc1
Activity (Onchocerca lienalis): 93%
CC20 (HepG2): >80 µM

The next lines start with results.

IC50 (Cryptosporidium parvum [9]): 13.9 µM
IC50 (Cryptosporidium parvum [10]): 0.5 µM
Compound: COc1ccc(-c2nn(C(C)C)c3ncnc(N)c23)cc1OC
CC20 (HepG2): 1.63 µM
CC50 [11]: 25.1 µM

IC50 (Cryptosporidium parvum [9]): 0.68 µM
IC50 (Cryptosporidium parvum [10]): < 0.1 µM
Compound: COc1cc(NC(=O)Cc2nn(C)c(=O)c3ccccc23)ccc1Cl
CC20 (HepG2): >80 µM
CC50 [11]: > 50 µM

IC50 (Cryptosporidium parvum [9]): > 10 µM
IC50 (Cryptosporidium parvum [10]): > 10 µM
Compound: CC(C)C(Oc1cccc2ccccc12)C(=O)O (configuration not stated)
CC20 (HepG2): >80 µM
CC50 [11]: > 50 µM

IC50 (Cryptosporidium parvum [9]): 25.9 µM
IC50 (Cryptosporidium parvum [10]): 0.5 µM
Compound: Nc1ncnc2c1c(Cc1cccc3ccccc13)nn2CC1CCNCC1
CC20 (HepG2): >80 µM
CC50 [11]: > 50 µM

IC50 (Cryptosporidium parvum [9]): 1.51 µM
IC50 (Cryptosporidium parvum [10]): > 5 µM
Compound: Clc1ccc(-n2cc(COc3ccnc4ccccc34)nn2)cc1
CC20 (HepG2): 13.6 µM
CC50 [11]: > 50 µM

IC50 (Schistosoma mansoni [5]): 3.88 µM
IC50 (Schistosoma mansoni [6]): 7.2 µM
Compound: Cc1cc(OCC(=O)Nc2ccc(C(C)C)cc2)n(C)c(=O)c1C#N
Inhibition (Schistosoma mansoni [7]): 13.3%
CC20 (HepG2): >80 µM

IC50 (Trypanosoma cruzi): 1.08 µM
IC50 (Trypanosoma brucei [1]): 0.26 µM
IC50 (Trypanosoma brucei [2]): < 0.13 µM
IC50 (Leishmania major): 3.15 µM
IC50 (Leishmania infantum): 1.15 µM
Compound: Cc1ncc(-c2ccnc(Nc3ccc(S(C)(=O)=O)cc3)n2)n1C(C)C [AZD-5438]
CC20 (HepG2): 0.18 µM
CC50 (MRC5): 1 µM
CC50 [3]: 4 µM

— ChEMBL document CHEMBL3832761, “MMV Pathogen Box Bioactivity Data” (2017)
